Like-named read-outs stand apart in the source and are kept apart here.
Key:
TOP1 = target: T1, TOP1 (Homo sapiens, UniProt P11387); assay: DNA-bound TOP1 (Topo I Link Kit) after CPT11 exposure of synchronized cells; type: cell-based; details: synchronized Caco-2 cells
T1 construct: endogenous in cells; host or cells: Caco-2 (ATCC)
T1 sequence (P11387 1-765): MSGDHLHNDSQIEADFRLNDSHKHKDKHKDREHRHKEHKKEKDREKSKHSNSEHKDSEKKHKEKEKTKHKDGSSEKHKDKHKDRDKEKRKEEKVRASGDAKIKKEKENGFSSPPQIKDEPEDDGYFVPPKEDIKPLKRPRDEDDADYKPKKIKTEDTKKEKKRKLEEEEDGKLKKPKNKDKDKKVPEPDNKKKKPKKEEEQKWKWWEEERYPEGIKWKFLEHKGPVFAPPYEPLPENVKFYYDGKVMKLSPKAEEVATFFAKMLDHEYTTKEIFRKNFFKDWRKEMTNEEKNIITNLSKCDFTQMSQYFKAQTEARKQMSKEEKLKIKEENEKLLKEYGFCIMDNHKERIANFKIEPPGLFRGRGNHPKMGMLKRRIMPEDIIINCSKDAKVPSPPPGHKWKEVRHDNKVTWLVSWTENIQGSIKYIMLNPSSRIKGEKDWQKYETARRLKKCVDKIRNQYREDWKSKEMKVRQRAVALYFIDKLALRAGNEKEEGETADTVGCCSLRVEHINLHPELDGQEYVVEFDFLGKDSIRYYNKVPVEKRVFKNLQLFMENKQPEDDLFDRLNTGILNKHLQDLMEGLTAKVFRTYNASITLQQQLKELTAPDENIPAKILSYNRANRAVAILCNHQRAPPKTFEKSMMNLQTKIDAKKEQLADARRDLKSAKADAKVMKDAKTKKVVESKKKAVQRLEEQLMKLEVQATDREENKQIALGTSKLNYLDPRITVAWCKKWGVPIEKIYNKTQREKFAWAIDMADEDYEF
Method: The Caco-2 cell line was obtained from the American Type Culture Collection (Rockville, MD). Cells were grown in Dulbecco's modified Eagle's: Ham F12 medium (1∶1) supplemented with penicillin ([…]), streptomycin ( [drawing 195] ), glutamine (2 mM) (Fischer Scientific, Paris, France) and 10% of Fetal Bovine Serum (FBS) (Dutscher, Paris, France). They were maintained in a humidified atmosphere containing 5% [drawing 196] at [drawing 197] . Experiments were performed four days after confluence. CPT11 was purchased from Pfizer (Paris, France). For transport inhibition studies, non-synchronized cells were pre-incubated with verapamil, a non specific inhibitor of ABC transporters ( [drawing 198] for 24 h; Sigma Aldrich, Paris, France). […] Cell synchronization was performed by a serum shock which consisted in a 2-hour exposure to serum rich medium (DMEM:F12 containing 50% FBS). The beginning of the serum shock defined Circadian Time 0 (CT 0).
The Topo I Link Kit (TopoGen, Port Orange, FL) was used to quantify the amount of TOP1 linked on DNA [56]. […] Fractions of [drawing 208] were removed from the top of the gradient, and an aliquot of each fraction ( [drawing 209] ) was diluted (1/5) and quantified at 260 nm with spectrophotometer (Eppendorf, Paris, France). […] Chemoluminescence signals were detected with Las4000 camera and quantified with ImageJ software. […]

CESs = details: cited from earlier work
[1] = cancer patients, dumbbell delivery scheme over 6h; cited from earlier work

## CCc1c2c(nc3ccc(OC(=O)N4CCC(N5CCCCC5)CC4)cc13)-c1cc3c(c(=O)n1C2)COC(=O)[C@]3(O)CC [CPT11, irinotecan]
TOP1; 30 min CPT11 exposure at CT14
  DNA-bound TOP1 protein amount, % of TOP1 total protein quantity: 47%
TOP1; 30 min CPT11 exposure at CT28
  DNA-bound TOP1 protein amount, % of TOP1 total protein quantity: 35.5%
CESs; [CES]=1.42 µM
  Kces: 53 µM
CESs; [CES]=2.03 µM
  Kces: 53 µM
  Vces: 0.714 µM/h
[1]
  time CPT11 circulating: approximately 12 h
